Results on 15 compounds are retold here after PubChem BioAssay AID328 (DTP/NCI, 2004).

Molecules are shown by their SMILES. Values joined by “and” are separate entries in the source; they are usually repeats but may differ in a detail not shown here. Equal entries are not always repeated. Inconclusive results and toxic doses are left out.

In the test the test system is BDF1 mice, P388 leukemia ip, median survival T/C. The experiment in a line: NCI In Vivo Anticancer Drug Screen. Data for tumor model P388 Leukemia (intraperitoneal) in B6D2F1 (BDF1) mice. Particulars: endpoint: median survival time, higher = longer survival. Put shortly:
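Transplantable tumour in mice; compound vs vehicle dosing; survival scored; ratio of treated to control reported.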

Where [1] appears, read: dose: 50.0 mg/kg/injection, schedule: Q01DX009 (ip), vehicle: saline with Tween-80.
Where [2] appears, read: dose: 100.0 mg/kg/injection, schedule: Q01DX009 (ip), vehicle: saline with Tween-80.
Where [3] appears, read: dose: 200.0 mg/kg/injection, schedule: Q01DX009 (ip), vehicle: saline with Tween-80.
[4] abbreviates: dose: 400.0 mg/kg/injection, schedule: Q01DX009 (ip), vehicle: saline with Tween-80.
[5] abbreviates: dose: 25.0 mg/kg/injection, schedule: Q01DX009 (ip), vehicle: saline with Tween-80.
[6] abbreviates: dose: 100.0 mg/kg/injection, schedule: Q01DX009 (ip), vehicle: Klucel (hydroxypropylcellulose) (HPC).
The mark [7] stands for this setting: dose: 200.0 mg/kg/injection, schedule: Q01DX009 (ip), vehicle: Klucel (hydroxypropylcellulose) (HPC).
Where [8] appears, read: dose: 400.0 mg/kg/injection, schedule: Q01DX009 (ip), vehicle: Klucel (hydroxypropylcellulose) (HPC).
[9] abbreviates: dose: 100.0 mg/kg/injection, schedule: Q04DX003 (ip), vehicle: saline with Tween-80.
Setting [10] is: dose: 200.0 mg/kg/injection, schedule: Q04DX003 (ip), vehicle: saline with Tween-80.

On to `CCCC(=O)N(C)C(C)C(=O)OC1CC(=O)N(C)c2cc(cc(OC)c2Cl)C/C(C)=C/C=CC(OC)C2(O)CC(OC(=O)N2)C(C)C2OC12C` (stereo unspecified), for which the T/C runs as follows: (dose: 0.1 micrograms/kg/injection, schedule: Q01DX009 (ip), vehicle: saline + alcohol) 97 % of control; (dose: 0.2 micrograms/kg/injection, schedule: Q01DX009 (ip), vehicle: saline + alcohol) 93 % of control; (dose: 0.4 micrograms/kg/injection, schedule: Q01DX009 (ip), vehicle: saline + alcohol) 104 % of control; (dose: 0.8 micrograms/kg/injection, schedule: Q01DX009 (ip), vehicle: saline + alcohol) 96 % of control and 112 % of control; (dose: 0.8 micrograms/kg/injection, schedule: Q01DX009 (ip), vehicle: saline) 104 % of control; (dose: 1.6 micrograms/kg/injection, schedule: Q01DX009 (ip), vehicle: saline + alcohol) 102 % of control and 107 % of control. For the same compound, the T/C is 105 % of control (dose: 1.6 micrograms/kg/injection, schedule: Q01DX009 (ip), vehicle: saline); 88 % of control and 111 % of control (dose: 3.1 micrograms/kg/injection, schedule: Q01DX009 (ip), vehicle: saline + alcohol); 105 % of control (dose: 3.1 micrograms/kg/injection, schedule: Q01DX009 (ip), vehicle: saline); 92 % of control and 114 % of control (dose: 6.2 micrograms/kg/injection, schedule: Q01DX009 (ip), vehicle: saline + alcohol); 96 % of control (dose: 6.2 micrograms/kg/injection, schedule: Q01DX009 (ip), vehicle: saline); 113 % of control (dose: 12.5 micrograms/kg/injection, schedule: Q01DX009 (ip), vehicle: saline + alcohol). Also, the T/C is, setting by setting: (dose: 12.5 micrograms/kg/injection, schedule: Q01DX009 (ip), vehicle: saline) 110 % of control; (dose: 25.0 micrograms/kg/injection, schedule: Q01DX009 (ip), vehicle: saline + alcohol) 97 % of control; (dose: 25.0 micrograms/kg/injection, schedule: Q01DX009 (ip), vehicle: saline) 107 % of control; (dose: 25.0 nanograms/kg/injection, schedule: Q## X009 (ip), vehicle: other) 94 % of control; (dose: 50.0 micrograms/kg/injection, schedule: Q01DX009 (ip), vehicle: saline + alcohol) 105 % of control and 122 % of control; (dose: 50.0 micrograms/kg/injection, schedule: Q01DX009 (ip), vehicle: saline) 116 % of control. The T/C is, setting by setting: (dose: 100.0 micrograms/kg/injection, schedule: Q01DX009 (ip), vehicle: saline + alcohol) 111 % of control; (dose: 200.0 micrograms/kg/injection, schedule: Q01DX009 (ip), vehicle: saline + alcohol) 111 % of control and 117 % of control; (dose: 200.0 nanograms/kg/injection, schedule: Q## X009 (ip), vehicle: other) 88 % of control; (dose: 400.0 nanograms/kg/injection, schedule: Q## X009 (ip), vehicle: other) 102 % of control.

`Cc1ccc(C(=O)N(N)C2CCCCC2)cc1`: under setting [1], the T/C is 92 % of control.

Regarding `CCOC(=O)c1ccc(NCC(=N)N)cc1`, the T/C by setting is: (dose: 37.5 mg/kg/injection, schedule: Q01DX001 (ip), vehicle: saline sonified) 100 % of control; (dose: 75.0 mg/kg/injection, schedule: Q01DX001 (ip), vehicle: saline sonified) 100 % of control; (dose: 150.0 mg/kg/injection, schedule: Q01DX001 (ip), vehicle: saline sonified) 100 % of control.

For the compound `Cc1ccccc1-c1nc2c(N)nc(N)nc2nc1N`, the T/C under setting [2] is 122 % of control; the T/C under setting [3] was 163 % of control; the T/C (dose: 264.0 mg/kg/injection, schedule: Q04DX003 (ip), vehicle: saline with Tween-80) was 100 % of control and 104 % of control; the T/C under setting [4] is 200 % of control; the T/C (dose: 400.0 mg/kg/injection, schedule: Q04DX003 (ip), vehicle: saline with Tween-80) was 118 % of control; the T/C (dose: 600.0 mg/kg/injection, schedule: Q04DX003 (ip), vehicle: saline with Tween-80) is 118 % of control.

`CCCCCCCCC(O)CCC` (stereo unspecified): the T/C is 100 % of control (dose: 100.0 mg/kg/injection, schedule: Q01DX009 (ip), vehicle: saline) and 109 % of control (dose: 200.0 mg/kg/injection, schedule: Q01DX009 (ip), vehicle: saline).

For the compound `CC(=O)Nc1ccc(S(=O)(=O)Nc2ccc([N+](=O)[O-])cc2)cc1`, the T/C by setting is: under setting [5], 104 % of control; (dose: 50.0 mg/kg/injection, schedule: Q01DX009 (ip), vehicle: water) 95 % of control; under setting [2], 97 % of control; under setting [3], 97 % of control; under setting [4], 106 % of control.

Regarding `COc1cccc(CN2CCNCC2)c1`, the T/C was 87 % of control (dose: 6.25 mg/kg/injection, schedule: Q04DX003 (ip), vehicle: water); 89 % of control (dose: 12.5 mg/kg/injection, schedule: Q04DX003 (ip), vehicle: water); 93 % of control (dose: 25.0 mg/kg/injection, schedule: Q04DX003 (ip), vehicle: water); 101 % of control (dose: 50.0 mg/kg/injection, schedule: Q04DX003 (ip), vehicle: water); 94 % of control (dose: 100.0 mg/kg/injection, schedule: Q04DX003 (ip), vehicle: water).

Regarding `OCC(O)C(O)C(O)C(O)C(O)c1nc2ccccc2[nH]1` (stereo unspecified), the T/C is, setting by setting: under setting [2], 100 % of control; under setting [3], 91 % of control; under setting [4], 93 % of control.

With `CC(=O)OCC(=O)[C@@]1(O)CC[C@H]2[C@@H]3CCC4=CC(=O)[C@H](C)C[C@]4(C)[C@H]3[C@@H](O)C[C@@]21C`, the T/C is 118 % of control under setting [6], 109 % of control under setting [7] and 118 % of control under setting [8].

Take `CC(C)NCc1ccccc1Sc1ccccc1`: the T/C (dose: 100.0 mg/kg/injection, schedule: Q01DX001 (ip), vehicle: saline with Tween-80) was 101 % of control.

For `OCCN(CCO)c1cc(/C=C/c2ccnc3ccccc23)nc2ccccc12`, the T/C is 89 % of control under setting [1], 89 % of control under setting [2] and 91 % of control under setting [3].

Turning to `COc1ccccc1NC(=S)N(C)C`, the T/C under setting [1] is 100 % of control; the T/C (dose: 50.0 mg/kg/injection, schedule: Q04DX003 (ip), vehicle: saline with Tween-80) was 113 % of control; the T/C under setting [2] is 105 % of control; the T/C under setting [9] was 109 % of control; the T/C under setting [3] was 110 % of control; the T/C under setting [10] was 104 % of control.

As to `C[Si](C)(C)Nc1ncnc2c1ncn2[Si](C)(C)C`, the T/C under setting [2] is 91 % of control.

As to `Cc1ccc(S(=O)(=O)N(CCO)CC(C)O)cc1` (stereo unspecified), the T/C is 100 % of control under setting [6], 100 % of control under setting [7] and 100 % of control under setting [8].

In the case of `CCOC(=O)c1c[nH]c2c(OC)cccc2c1=O`, the T/C is, setting by setting: under setting [5], 93 % of control; under setting [1], 109 % of control; under setting [2], 109 % of control; under setting [9], 99 % of control; under setting [3], 109 % of control; under setting [10], 98 % of control. For the same compound, where the note is “dose: 300.0 mg/kg/injection, schedule: Q01DX009 (ip), vehicle: saline with Tween-80”, the T/C was 90 % of control.
